Test results as given in ChEMBL document CHEMBL4000235, “Discovering novel 7-azaindole-based series as potent AXL kinase inhibitors” (Bioorg Med Chem Lett, 2017).

Experiments:
[1] = target: T1, Tyrosine-protein kinase receptor UFO (Homo sapiens, UniProt P30530); experiment: Inhibition of recombinant human His-tagged AXL expressed in insect cells after 60 mins by Z'-LYTE assay
T1 sequence (P30530 whole entry): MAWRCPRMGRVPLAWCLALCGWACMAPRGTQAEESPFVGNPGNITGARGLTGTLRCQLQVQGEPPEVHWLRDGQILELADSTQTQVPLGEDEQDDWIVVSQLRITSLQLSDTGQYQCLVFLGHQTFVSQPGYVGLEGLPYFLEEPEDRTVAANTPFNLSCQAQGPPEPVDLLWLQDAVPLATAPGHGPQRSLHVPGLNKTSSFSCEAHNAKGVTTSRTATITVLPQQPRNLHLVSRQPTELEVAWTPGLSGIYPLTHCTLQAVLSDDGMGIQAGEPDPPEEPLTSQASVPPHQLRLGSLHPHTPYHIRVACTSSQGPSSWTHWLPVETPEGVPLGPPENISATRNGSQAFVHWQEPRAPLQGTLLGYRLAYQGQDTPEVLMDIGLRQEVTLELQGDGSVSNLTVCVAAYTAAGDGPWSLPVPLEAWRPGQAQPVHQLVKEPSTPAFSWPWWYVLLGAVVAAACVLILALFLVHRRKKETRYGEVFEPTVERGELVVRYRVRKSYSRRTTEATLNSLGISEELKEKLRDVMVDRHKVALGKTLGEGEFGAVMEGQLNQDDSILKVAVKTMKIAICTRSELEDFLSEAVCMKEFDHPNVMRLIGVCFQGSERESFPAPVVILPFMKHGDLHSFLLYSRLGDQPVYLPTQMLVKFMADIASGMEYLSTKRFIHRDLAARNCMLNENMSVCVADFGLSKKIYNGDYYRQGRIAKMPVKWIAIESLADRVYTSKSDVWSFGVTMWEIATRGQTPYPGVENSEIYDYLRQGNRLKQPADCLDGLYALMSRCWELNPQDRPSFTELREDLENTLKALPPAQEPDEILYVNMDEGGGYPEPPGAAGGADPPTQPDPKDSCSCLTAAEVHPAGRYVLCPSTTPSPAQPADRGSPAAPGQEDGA

[2] = target: Tyrosine-protein kinase receptor UFO (Homo sapiens) (UniProt P30530); conditions: 1 uM
Description: Inhibition of recombinant human His-tagged AXL expressed in insect cells at 1 uM after 60 mins by Z'-LYTE assay relative to control

Row | Structure (SMILES) | IC50 [1] [nM] | inhibition [2] [%]
1 | O=C(O)c1ccc(-c2c[nH]c3ncc(-c4ccccc4)cc23)cc1 | 182 | 
2 | O=C(O)c1cc(-c2c[nH]c3ncc(-c4ccccc4)cc23)ccc1F | > 1000 | 
3 | c1ccc(-c2cnc3[nH]cc(-c4ccc(-c5nnn[nH]5)cc4)c3c2)cc1 | 524 | 75
